A short description of this data set: Human HepG2 cell viability assay in 384 well format. It counts as toxicity, cell-based. The arrangement: dose 125 nL, time 70.5 hour; concentration not given beside the values. The note with it: HepG2 cells, read-out: Inhibition.
Take `CN(c1nc(Cn2cc(Br)ccc2=O)cs1)C1CC1`: the cytotoxicity at 70.5 h was -4.85%.

Turning to `Cc1cc(C(=O)N2C[C@@H]3COC[C@]3(CN(C)C)C2)c(C)o1`, the cytotoxicity at 70.5 h is -17.3%.

Regarding `COCCOCCNc1cncc(Br)c1`, the cytotoxicity at 70.5 h is -0.213%.

In the case of `CC(NC(=O)NCCCN1CCCCCC1=O)c1nncn1C` (stereo unspecified), the cytotoxicity at 70.5 h is 10.2%.

On to `CCN(C)CC(C)Cn1cnc(-c2ccccc2)c1C` (stereo unspecified), for which the cytotoxicity at 70.5 h is -15.1%.

For `O=C1N[C@@H]2CCN(C(=O)c3ccccc3)[C@@H]2C(=O)N1c1ccc(F)cc1`, the cytotoxicity at 70.5 h is -12.9%.

As to `CCCC(C)CN1CCC(n2cc(C3CCCC3)nn2)CC1` (stereo unspecified), the cytotoxicity at 70.5 h is -6.08%.

As to `Cc1ccc(C)c(S(=O)(=O)NCCOc2ccc3nnc(C)n3n2)c1`, the cytotoxicity at 70.5 h came to 42.7%.

`Cn1cncc1C(=O)N1CCOC2(COCCN(CC3CC3)C2)C1` (stereo unspecified): the cytotoxicity at 70.5 h was -1.4%.

Turning to `COc1cccc(OCCNCc2ccccc2)c1`, the cytotoxicity at 70.5 h is -7.2%.

`Cc1ccc(N2C[C@@H]3CN(C(=O)c4ccccc4)CCO[C@@H]3C2)nn1`: the cytotoxicity at 70.5 h was determined as 23.3%.

As to `O=C(CCc1ccc(Br)cc1)NCCc1nnc[nH]1`, the cytotoxicity at 70.5 h was -11.9%.

For the compound `Cc1nn(CN(CC2CCOC2)C2CC2)c(=O)c2ccccc12` (stereo unspecified), the cytotoxicity at 70.5 h is -3.01%.

Consider `COc1cc(I)c(Cl)cc1C(=O)N(C)CC(=O)NC(C)(C)C`, for which the cytotoxicity at 70.5 h was -23.4%.

Consider `Cn1c(CCN2CCN(CCc3ccccc3)CC2)nc2ccccc21`, for which the cytotoxicity at 70.5 h was -6.23%.

For the compound `Cc1ccc(C2CCCCCN2Cc2cn(C)nc2C)s1` (stereo unspecified), the cytotoxicity at 70.5 h is -19.6%.

For `CCOc1ccnc(N2CCN(C(=O)c3cccc(C#N)c3)CC2)n1`, the cytotoxicity at 70.5 h was -6.91%.

In the case of `Cc1nc(CN(C)CC2CCCN2c2cccnn2)oc1C` (stereo unspecified), the cytotoxicity at 70.5 h is -1.57%.

On to `CN(C)C[C@@H]1CN(C2CCN(c3ccccc3Cl)CC2)C[C@@H]1CO`, for which the cytotoxicity at 70.5 h is -14.4%.

Consider `Cn1ccc(C(=O)N2CCCCC23CC(=O)N(Cc2ccccc2)C3)n1` (stereo unspecified), for which the cytotoxicity at 70.5 h worked out at 1.38%.

Turning to `COc1cccc(CN(C)C(=O)CN2CCN(c3nccs3)CC2)c1`, the cytotoxicity at 70.5 h is -9.6%.

In the case of `O=C(c1ccncc1)N1CCc2ncnc(C3CC3)c2CC1`, the cytotoxicity at 70.5 h was -14.3%.

Turning to `CCOC1COC2(CCN(Cc3cccc(F)c3)CC2)C1` (stereo unspecified), the cytotoxicity at 70.5 h is -12%.

Regarding `O=C(NCCOc1ccc(F)c(F)c1)NCc1ccncc1`, the cytotoxicity at 70.5 h is -11.2%.

`Cc1ccnc(NC(=O)C(C)Cn2cncn2)c1` (stereo unspecified): the cytotoxicity at 70.5 h stood at 13.8%.

In the case of `c1ccc(-c2nc(CNC3CCc4ncnn4C3)co2)cc1` (stereo unspecified), the cytotoxicity at 70.5 h stood at 1.4%.

For the compound `CN(C)CC1(O)CCCN(c2nc(-c3ccccc3)no2)CC1` (stereo unspecified), the cytotoxicity at 70.5 h is -7.51%.

Regarding `CNC(=O)CC1c2cccnc2C(=O)N1Cc1ccccc1` (stereo unspecified), the cytotoxicity at 70.5 h was -4.81%.

In the case of `Cn1cnnc1C1CCCN(C(=O)c2cnc3ccccc3n2)C1` (stereo unspecified), the cytotoxicity at 70.5 h is -1.48%.

Turning to `CCn1cncc1C1CC(=O)Nc2c1c(C)nn2C` (stereo unspecified), the cytotoxicity at 70.5 h was -4.74%.

In the case of `CN(Cc1ccccc1)CC1CC2(CO1)CN(Cc1cnn(C)c1)C2` (stereo unspecified), the cytotoxicity at 70.5 h was -6.11%.

On to `Cc1nc(C)n(CC2CCCN(c3ccnc(-c4ccccc4)n3)C2)n1` (stereo unspecified), for which the cytotoxicity at 70.5 h was -10.2%.

Turning to `CCC[C@@H]1CN(c2ncnc3sccc23)C[C@H]1NS(C)(=O)=O`, the cytotoxicity at 70.5 h was -4.58%.

Consider `CCNc1c(C#N)c(=O)n(C)c(=O)n1C`, for which the cytotoxicity at 70.5 h is -8.97%.

On to `CNC(=O)C1CCCN(c2nc(-c3ccco3)nc3c2CCNCC3)C1` (stereo unspecified), for which the cytotoxicity at 70.5 h is -4.06%.

Regarding `Cc1cccc2nc(CN3CCC(Cn4ccnn4)CC3)cc(=O)n12`, the cytotoxicity at 70.5 h is -3.54%.

`NC(=O)c1cccc(CCNC(=O)N2CCCC2)c1`: the cytotoxicity at 70.5 h is -8%.

As for `COCC(=O)N1CCCC1c1ccnc(Nc2cnccn2)n1` (stereo unspecified), the cytotoxicity at 70.5 h is -7.05%.

`Cc1cnc2c(c1NCc1ccc(F)cc1)c(=O)n(C)c(=O)n2C`: the cytotoxicity at 70.5 h came to 12.7%.

Turning to `Cc1ccc(NC(=O)C(C)n2ccc(C(F)(F)F)n2)nc1` (stereo unspecified), the cytotoxicity at 70.5 h stood at 1.64%.

`N#Cc1ccc(OCCN2CCNC(=O)C2c2cccs2)cc1` (stereo unspecified): the cytotoxicity at 70.5 h is -6.87%.

Consider `CCN(CC)CC1CN(Cc2ccco2)Cc2nccn2C1` (stereo unspecified), for which the cytotoxicity at 70.5 h was -4.92%.

For `COCCN1CC=C(c2cccc(OC)c2)CC1`, the cytotoxicity at 70.5 h turned out to be 1.42%.

In the case of `Cc1cc(NC(C)c2nncn2C2CCCC2)n2nc(C)c(C)c2n1` (stereo unspecified), the cytotoxicity at 70.5 h was -12.4%.

Regarding `O=C(CSC1CCc2ccccc2NC1=O)NCCc1ccc(O)cc1` (stereo unspecified), the cytotoxicity at 70.5 h is -2.27%.

On to `Cc1nc(CNC(=O)Nc2ccc(N(C)C)nc2)sc1C`, for which the cytotoxicity at 70.5 h is -2.95%.

In the case of `Nc1cc(C(=O)N2CCCC(C(=O)CCc3ccccc3)C2)ccn1` (stereo unspecified), the cytotoxicity at 70.5 h was -3.17%.

In the case of `Cc1cnc(C(=O)Nc2cc(F)ccc2OCC2CCCO2)cn1` (stereo unspecified), the cytotoxicity at 70.5 h was -6.23%.

As to `CN(CC(=O)N1CCCN(Cc2cscn2)CC1)c1cnccn1`, the cytotoxicity at 70.5 h is -5.45%.

Take `CCC(=O)N1CCCCC1c1nc(O)c2c(n1)CN(C(=O)C1CC1)CC2` (stereo unspecified): the cytotoxicity at 70.5 h was -7.02%.

For the compound `CC(C)(C)n1ncc2c(=O)[nH]c(N3CCN(CC(F)F)CC3)nc21`, the cytotoxicity at 70.5 h was -4.17%.

For `CC1c2ncc(Cn3cccn3)n2CCN1Cc1ccccn1` (stereo unspecified), the cytotoxicity at 70.5 h was -1.75%.

In the case of `Cc1cccc2c1nc(COCC(=O)O)n2-c1cnc(N)cn1`, the cytotoxicity at 70.5 h was -4.53%.

Regarding `CC(=O)NCC(=O)NCC1(O)CCN(c2cnccn2)C1` (stereo unspecified), the cytotoxicity at 70.5 h was 15.9%.

In the case of `Cc1nc(C2CCCN2C(=O)CNS(C)(=O)=O)no1` (stereo unspecified), the cytotoxicity at 70.5 h is -13.3%.

For the compound `O=C(Cc1ccc(F)c(F)c1)NC1COc2ccccc2C1=O` (stereo unspecified), the cytotoxicity at 70.5 h was -0.695%.

`CC(C)COCCNC1CCN(c2ccccn2)CC1`: the cytotoxicity at 70.5 h is 0.205%.

Take `CN(C)c1ccc(C(=O)N(Cc2ccncc2)CC2CCCO2)nn1` (stereo unspecified): the cytotoxicity at 70.5 h was -4.51%.

As to `CCCn1nnnc1COC(=O)C1COc2ccccc2O1` (stereo unspecified), the cytotoxicity at 70.5 h is -6.23%.

In the case of `Cc1noc(CN(Cc2ccc3c(c2)OCO3)Cc2ccc(C)o2)n1`, the cytotoxicity at 70.5 h is -15.7%.

Take `CCCN1CCC(Cc2nn3c(C(C)C)nnc3s2)CC1`: the cytotoxicity at 70.5 h turned out to be 10.4%.

As to `Cc1nn(C)c(C)c1S(=O)(=O)NCC1CCN(c2ccccn2)CC1`, the cytotoxicity at 70.5 h is 0.358%.

Consider `CN(C)C(=O)c1ccc(CNC(=O)NCCN(C)C2CCCC2)cc1`, for which the cytotoxicity at 70.5 h is -13%.

For the compound `CC(=O)Nc1ccc(S(=O)(=O)NC(=O)CCC2CCCO2)cc1` (stereo unspecified), the cytotoxicity at 70.5 h came out at 26.4%.

As to `CN(CCc1ccncc1)CCc1nccs1`, the cytotoxicity at 70.5 h is -12.8%.

Regarding `CN(CC(O)COc1ccc(C(F)(F)F)cc1)C(=O)Nc1nncs1` (stereo unspecified), the cytotoxicity at 70.5 h stood at 19.7%.

`Cc1nc(C)n(CC2CN(CC(=O)Nc3cccnc3)CCO2)n1` (stereo unspecified): the cytotoxicity at 70.5 h was -2.68%.

For `COCCN(C)C(C(=O)O)c1ccc(F)c(C)c1` (stereo unspecified), the cytotoxicity at 70.5 h was -2.89%.

Regarding `CC(=O)NC(C)(C)c1noc(C2(C#N)CCCCC2)n1`, the cytotoxicity at 70.5 h was -3.45%.

Take `CC1CN(CC(=O)Nc2ccncc2)CCN1Cc1nccn1C` (stereo unspecified): the cytotoxicity at 70.5 h is -0.423%.

As for `CC(C)OC[C@H]1CCC[C@]12CN(S(=O)(=O)C1CC1)CCO2`, the cytotoxicity at 70.5 h was -0.771%.

In the case of `CN(Cc1ccc(Br)s1)Cn1nc(-c2ccc(F)cc2)oc1=O`, the cytotoxicity at 70.5 h was -4.35%.

As to `NC(=O)C1CCN(C(=O)CCCc2ccc(Cl)c(Cl)c2)CC1`, the cytotoxicity at 70.5 h was -6.88%.

On to `COCC(NC(=O)c1cc(NC(C)=O)ccc1Cl)c1ccnn1C` (stereo unspecified), for which the cytotoxicity at 70.5 h is -1.93%.

As to `CC(C)N(C)C(=O)C1CSCN1S(=O)(=O)c1ccccc1F` (stereo unspecified), the cytotoxicity at 70.5 h was -9.21%.

Consider `Fc1ccc(OCCCNC2=NCCN2)cc1`, for which the cytotoxicity at 70.5 h was -14.3%.

For the compound `COc1cccc2c1OCC(C(=O)N1Cc3ccccc3C1)C2` (stereo unspecified), the cytotoxicity at 70.5 h was -1.1%.

Regarding `Cc1ccc(-c2nc(CN3CCOC(c4ccccc4)C3)cs2)o1` (stereo unspecified), the cytotoxicity at 70.5 h was -9.61%.

Take `Cc1[nH]c(=O)[nH]c(=O)c1CC(=O)N1CCCN(CC2CC2)C(C(C)C)C1` (stereo unspecified): the cytotoxicity at 70.5 h was 0.527%.

`Cc1ncoc1C(=O)N1C[C@H]2CCC[C@@]2(COCC2CCOCC2)C1`: the cytotoxicity at 70.5 h is -12.7%.

Turning to `CCc1cnccc1C(=O)Nc1ccc(C(N)=O)nc1`, the cytotoxicity at 70.5 h was -4.18%.

As for `Cc1cnc(N2CCC3(CC2)CC3CNC(=O)C2CCC2)nc1` (stereo unspecified), the cytotoxicity at 70.5 h was -1.64%.

Consider `Cc1cnc(CNc2c(F)cccc2-n2cccn2)o1`, for which the cytotoxicity at 70.5 h turned out to be 7.74%.

For the compound `CCN(CC1CCOC1)C(=O)CSCC(=O)Nc1ccc(C)cc1` (stereo unspecified), the cytotoxicity at 70.5 h was -2.49%.

As to `CCc1cc(C(=O)N2CCCC2c2nc(O)cc(CC)n2)on1` (stereo unspecified), the cytotoxicity at 70.5 h is -1.1%.

With `CNc1cncc(C2CCCN2Cc2c[nH]cn2)n1` (stereo unspecified), the cytotoxicity at 70.5 h is -18.1%.

In the case of `O=C(NC1CC1)[C@H]1C[C@@H]2CCN(CCc3ccccc3)C[C@H]2O1`, the cytotoxicity at 70.5 h was -11.8%.

On to `OC1(CNCc2csc(-c3ncccn3)n2)CCCNC1` (stereo unspecified), for which the cytotoxicity at 70.5 h is -5.29%.

With `O=C(c1ccc(F)c(F)c1)N1CCN2CCCC2C1` (stereo unspecified), the cytotoxicity at 70.5 h is 3.92%.

Take `CS(=O)(=O)CC(=O)N1C[C@H]2CCC[C@@]2(COCc2ccccn2)C1`: the cytotoxicity at 70.5 h was -19.8%.

In the case of `CN(C)CCn1c(=O)oc2ccc(NC(=O)N3CCCCCC3)cc21`, the cytotoxicity at 70.5 h came out at 35.5%.

As for `O=C(NC1CCC1)[C@@H]1CCO[C@@H]2CCN(C3CCCC3)C[C@@H]21`, the cytotoxicity at 70.5 h was 1.69%.

For `COc1ccc(Cl)cc1CNC(=O)CN1CCC2(CCOC2)C1` (stereo unspecified), the cytotoxicity at 70.5 h came out at 20%.

`Fc1ccc(C(CNc2ccncn2)N2CCCCC2)cc1` (stereo unspecified): the cytotoxicity at 70.5 h is -13.6%.

Consider `CN(Cc1cc(Cl)cc2cccnc12)CC1CCN(CCO)CC1`, for which the cytotoxicity at 70.5 h was -2.37%.

`O=S(=O)(CC1CCCCO1)Nc1cc(F)ccc1-n1cccn1` (stereo unspecified): the cytotoxicity at 70.5 h was determined as 9.49%.

With `O=C(Cn1cnc(-c2cccs2)cc1=O)Nc1cccnc1`, the cytotoxicity at 70.5 h was -4.25%.

With `CN1CCC(CCc2ccnc(Nc3cnccn3)c2)CC1`, the cytotoxicity at 70.5 h was -4.49%.

Consider `O=C(CN1CCCC(Cn2cncn2)C1)NCCCc1ccccc1` (stereo unspecified), for which the cytotoxicity at 70.5 h was -2.31%.

With `Cc1cnn(CCNCC(=O)NCCOc2ccc(Cl)cc2)c1`, the cytotoxicity at 70.5 h was -13%.

As to `CN(C)c1ccc(CC2CCN(c3cnccn3)CC2)nn1`, the cytotoxicity at 70.5 h was -7.84%.

Source of the values: ChEMBL document CHEMBL3507680, “University of Dundee, Gates Library screen for HepG2 cell viability”.
